For orientation: IC50 means the concentration needed to halve the response being measured. Low readings indicate greater potency in that assay, high ones weaker potency in that assay.

For one data set, the system named is MDA-MB-231 cells. As to the kind of experiment: Monolayer cytotoxicity (MTT assay), MDA-MB-231 cells. It is filed as cell-based, human. Conditions: 72 h incubation. From the text:
(§1) Cell Lines and Cell Culture Conditions. The human mammary epithelial HMLER and HMLER-shEcad cell lines were kindly donated by Prof. R. A. Weinberg (Whitehead Institute, MIT). The human epithelial breast MCF10A, breast adenocarcinoma MDA-MB-231 and MDA-MB-468, murine epithelial breast 4T1, and embryonic kidney HEK 293 cell lines were acquired from American Type Culture Collection (ATCC, Manassas, VA, USA).
(§2) HMLER, HMLER-shEcad, and MCF10A cells were maintained in Mammary Epithelial Cell Growth Medium (MEGM) with supplements and growth factors (BPE, hydrocortisone, hEGF, insulin, and gentamicin/amphotericin-B). MDA-MB-231, MDA-MB-468, 4T1, and HEK 293 cells were maintained in Dulbecco's Modified Eagle's Medium (DMEM) supplemented with fetal bovine serum (10 %) and penicillin/streptomycin (1 %). The cells were grown at 310 K in a humidified atmosphere containing 5% CO2.
(§3) Monolayer Cytotoxicity Studies. Exponentially growing cells were seeded at a density of approximately 5 × 10^3 cells per well in 96-well flat-bottomed microplates and allowed to attach for 24 h prior to addition of compounds. Various concentrations of the test compounds (0.0004-100 μM) were added and incubated for 72 h at 37 °C (total volume 200 μl). Stock solutions of the compounds were prepared as 10 mM DMSO solutions and diluted using cell […]
media. The final concentration of DMSO in each well was ≤1 %. […] The optical density was measured at 550 nm using a 96-well multiscanner autoreader. Absorbance values were normalised to (DMSO-containing) control wells and plotted as concentration of test compound versus % cell viability. […]
h, the fluorescence of the solutions was read at 590 nm (λex = 560 nm). […]
Cellular Uptake. […] The number of cells was counted at this stage, using a haemocytometer. […] All samples were diluted 17-fold with water and analysed using inductively coupled plasma mass spectrometry (ICP-MS, Thermo Scientific ICAP-Qc quadrupole ICP mass spectrometer). Gold levels are expressed as mass of Au (ng) per million cells. […]
On the technique in general: Tetrazolium dyes change colour on reduction, which living cells bring about.

The subject of data set [1] is HMLER-shEcad mammospheres. As to the kind of experiment: Mammosphere viability assay (TOX8). To be noted: 5 days incubation. In kind it is cell-based, human.
Procedure: Tumorsphere Formation and Viability Assay.
in ultralow-attachment 96-well plates (Corning) and incubated in MEGM supplemented with B27 (Invitrogen), 20 ng mL-1 EGF and 4 μg mL-1 heparin (Sigma) for 5 days. […] The viability of the mammospheres was determined by addition of a resazurin-based reagent, TOX8 (Sigma). After incubation for 16 h, the fluorescence of the solutions was read at 590 nm (λex = 560 nm). Viable mammospheres reduce the amount of the oxidised TOX8 form (blue) and concurrently increase the amount of the fluorescent TOX8 intermediate (red), indicating the degree of mammosphere cytotoxicity caused by the test compound. Fluorescence values were normalised to DMSO-containing controls and plotted as concentration of test compound versus % mammospheres viability. IC50 values were interpolated from the resulting dose dependent curves. The reported IC50 values are the average of three independent experiments, each consisting of two replicates per concentration level (overall n = 6).
Data set [2] has as its system murine 4T1 triple-negative breast cancer model. The data set can be described thus: Antitumour efficacy in murine 4T1 triple-negative breast cancer model. It is filed as in vivo, BALB/c mice. As to the method:
Mice. Female, 5-week-old BALB/c mice were purchased from Charles River Laboratories (Wilmington, MA). All mice were quarantined for one week before use and kept in micro - isolator cages (four mice per cage) in a temperature - and humidity-controlled environment a s per the Division of Laboratory Animal Research (DLAR) of University of Kentucky. All mice were maintained in a pathogen-free environment under the care of DLAR of University of Kentucky. Our study was performed in compliance with the NIH guidelines (NIH Publication No. 85-23 Rev. 1985) for the care and use of laboratory animals and all experimental procedures were monitored and approved by the Institutional Animal Care and Use Committee (IACUC) of University of Kentucky (USA).
In vivo studies with 1. Ten female BALB/c mice (5 weeks) were received from Charles River Laboratories (Wilmington, MA). […]
being implanted with 4T1 cells (1 million) subcutaneously on their right flank. Three days post-implantation, the mice were administered with 10 mg/kg of 1 intraperitoneally (IP), 0.1 mL/mouse formulated as 1% DMSO, 10% Kolliphor, and 89% PBS. The control group was injected with a PBS solution containing 1% DMSO and […]. The injection of 1, and […]
tumour-size and body-weight measurements were performed three days a week, and the mice were euthanised after 16 days (n = 5 for 1 and n = 5 for vehicle control). […]
Hematoxylin and eosin staining. The mice used in the in vivo comparative experiment of 1 and the vehicle control were sacrificed at day 16 post tumo ur cells (4T1) injection. The tissues (liver, kidney, and tumour) were fixed in freshly prepared paraformaldehyde (4% in PBS) for 24 h and processed for paraffin sectioning. Tissue sections of 5 µm were stained with hematoxylin and eosin and used for histological examination. A total of 3 sections per tissue (spanning the full depth of the tissue) were examined and photographed using a Nikon

The next data set concerns HEK 293 cells. As to the kind of experiment: Monolayer cytotoxicity (MTT assay), HEK 293 cells. It is filed as cell-based. To be noted: 72 h incubation.
From the text: as §1, §2
Monolayer Cytotoxicity Studies. Exponentially growing cells were seeded at a density of approximately 5 × 10^3 cells per well in 96-well flat-bottomed microplates and allowed to attach for 24 h prior to addition of compounds. […]
media. […] The optical density was measured at 550 nm using a 96-well multiscanner autoreader. Absorbance values were normalised to (DMSO-containing) control wells and plotted as concentration of test compound versus % cell viability. […]

A further data set relates to HMLER-shEcad cells. As to the kind of experiment: Monolayer cytotoxicity (MTT assay), HMLER-shEcad cells. Conditions: 72 h incubation, MTT. In kind it is cell-based, human.
From the text: as §1, §2, §3
media. The final concentration of DMSO in each well was ≤1 %. After 72 h, 20 μl of MTT (4 mg mL-1 in PBS) was added to each well and the plates incubated for an additional 4 h at 37 °C. The media/MTT mixture was eliminated and DMSO (100 μl per well) was added to dissolve the formazan precipitates. The optical density was measured at 550 nm using a 96-well multiscanner autoreader. Absorbance values were normalised to (DMSO-containing) control wells and plotted as concentration of test compound versus % cell viability. IC50 values were interpolated from the resulting dose dependent curves. The reported IC50 values are the average of three independent experiments (n = 18). […]
After incubation for 16 […]
h, the fluorescence of the solutions was read at 590 nm (λex = 560 nm). Viable mammospheres reduce the amount of the oxidised TOX8 form (blue) and concurrently increase the amount of the fluorescent TOX8 intermediate (red), indicating the degree of mammosphere cytotoxicity caused by the test compound. […]
Cellular Uptake. To measure the cellular uptake of 1-3 about 1 million HMLER-shEcad cells were treated with 1-3 (0.25 μM) at 37 °C for 24 h. After incubation, the media was removed, the cells were washed with PBS (2 mL × 3) and harvested. The number of cells was counted at this stage, using a haemocytometer. This mitigates any cell death induced by 1-3 at the administered concentration and experimental cell loss. The cellular pellets were dissolved in 65% HNO3 (250 µL) overnight. A cellular pellet of HMLER-shEcad cells treated with 1 was also used to determine the gold content in the nuclear, cytoplasmic and membrane fractions. The Thermo Scientific NE-PER Nuclear and Cytoplasmic Extraction Kit was used to extract and separate the nuclear, cytoplasmic and membrane fractions. The fractions were dissolved in 65% HNO3 (250 µL final volume) overnight. All samples were diluted 17-fold with water and analysed using inductively coupled plasma mass spectrometry (ICP-MS, Thermo Scientific ICAP-Qc quadrupole ICP mass spectrometer). Gold levels are expressed as mass of Au (ng) per million cells. Results are presented as the mean of four determinations for each data point.
Intracellular ROS Assay. […]

Setting [3] is: 10 mg kg−1 intraperitoneally three times a week, 16 days, vs vehicle.
The mark [4] stands for this setting: day 16, compared to control group.

In the case of `COc1ccc2c(c1)c(CC(=O)[O][Au][PH](c1ccccc1)(c1ccccc1)c1ccccc1)c(C)n2C(=O)c1ccc(Cl)cc1` [complex 1], the IC50 in the data set with MDA-MB-231 cells amounted to 3.94 ± 0.3 µM; in data set [1], 2 ± 0.1 µM; with HEK 293 cells, 1.92 ± 0.23 µM; with HMLER-shEcad cells, 0.056 ± 0.001 µM. Also, the body weight result in data set [2] (setting [3]) was “maintained their body weight”. In addition, in data set [2] (setting [3]), the tumour growth entry is listed as “significant tumour growth inhibition”. Moreover, in data set [2] (setting [4]), the “cellularity in kidney or liver tissue (H&E histology)” value is “no alteration to cellularity”. Further, the “cellularity in tumour tissue (H&E histology)” value in data set [2] (setting [4]) was “Reduced cellularity”.

The values above are taken from PMC9847679, “The anti-breast cancer stem cell properties of gold(I)-non-steroidal anti-inflammatory drug complexes” (Chemical Science, 2022).
